Experimental data published in publication PMC11123841, “Discovery and Synthesis of Hydroxy-L-Proline Blockers of the Neutral Amino Acid Transporters SLC1A4 (ASCT1) and SLC1A5 (ASCT2)” (Molecules, 2024).

Key:
SLC1A1 (EAAT3) = target: T1, SLC1A1 (EAAT3) (Homo sapiens, UniProt P43005); assay: TEVC in oocytes expressing glutamate transporter; assay type: cell-based; conditions: SLC1A1; applied at 1 mM
T1 construct: expressed in transfected cells; host or cells: Xenopus laevis oocytes (cRNA injection)
T1 sequence (P43005 1-524): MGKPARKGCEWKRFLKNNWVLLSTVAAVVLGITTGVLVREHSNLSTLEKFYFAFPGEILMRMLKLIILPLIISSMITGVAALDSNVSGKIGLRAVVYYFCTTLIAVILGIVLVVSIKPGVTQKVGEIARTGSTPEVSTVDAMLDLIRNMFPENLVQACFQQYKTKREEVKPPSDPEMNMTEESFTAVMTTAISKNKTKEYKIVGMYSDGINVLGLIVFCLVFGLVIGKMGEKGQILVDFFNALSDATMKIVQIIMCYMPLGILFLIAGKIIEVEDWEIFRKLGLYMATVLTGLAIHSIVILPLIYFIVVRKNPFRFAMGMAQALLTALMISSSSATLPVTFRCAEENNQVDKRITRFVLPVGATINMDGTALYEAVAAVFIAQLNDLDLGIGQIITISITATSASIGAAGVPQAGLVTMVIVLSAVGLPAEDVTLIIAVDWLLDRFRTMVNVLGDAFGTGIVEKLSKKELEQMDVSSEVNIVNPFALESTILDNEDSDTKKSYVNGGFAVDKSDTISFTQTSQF
Experimental: (§1) Additionally, 4-HP applied at 1 mM was used to assess activity at the glutamate transporters SLC1A3 or SLC1A1.
(§2) BPOHP activity was evaluated against the glutamate transporters paralogs within the SLC1A gene family (SLC1A 1–3) as well as at neutral amino acid transporters that share common ligand substrates with the SLC1 family including SLC38A1,2, and 4 (ATA1, ATA2, ATA3) and heteromeric transporters SLC7A10+SLC3A2 (asc-1/4f2).
(§3) Uptake was halted by washing 3 times with 4 °C ND96 buffer. Oocytes were then lysed in 0.1% Triton X-100, and radioactivity was counted via liquid scintillation. Dose response curves were generated by fitting fractional inhibition (I) to the expression I = Imax × [inhibitor]/([inhibitor] + IC50).
(§4) Two-electrode voltage clamp (TEVC) transporter currents were recorded with a GeneClamp 500 amplifier and Digidata 1320A analog–digital interface (Molecular Devices, San Jose, CA, USA). Electrodes (0.2–1.0 MΩ) were filled with 3M KCl and the recording chamber was grounded with an agar bridge. Data were acquired with Axograph (v1.7.6) and LabChart (v7) and analyzed with Kaleidagraph software (v4.1) (Synergy, Reading, PA, USA). Uncoupled anion currents associated with the transport of substrate and block of SLC1A4 or SLC1A5 mediated leak conductance were recorded in the presence of Ringer with 50% substitution of NaCl by NaSCN to amplify the non-transported anion conductance.
(§5) Figure SM-2 TEVC from oocytes expressing SLC1A1-3 transporters.
(§6) (1 picture or pasted object on this page, not shown here)

SLC1A3 (EAAT1) = target: T2, SLC1A3 (EAAT1) (Homo sapiens, UniProt P43003); assay: TEVC in oocytes expressing glutamate transporter; assay type: cell-based; conditions: SLC1A3; applied at 1 mM
T2 construct: expressed in transfected cells; host or cells: Xenopus laevis oocytes (cRNA injection)
T2 sequence (P43003 whole entry): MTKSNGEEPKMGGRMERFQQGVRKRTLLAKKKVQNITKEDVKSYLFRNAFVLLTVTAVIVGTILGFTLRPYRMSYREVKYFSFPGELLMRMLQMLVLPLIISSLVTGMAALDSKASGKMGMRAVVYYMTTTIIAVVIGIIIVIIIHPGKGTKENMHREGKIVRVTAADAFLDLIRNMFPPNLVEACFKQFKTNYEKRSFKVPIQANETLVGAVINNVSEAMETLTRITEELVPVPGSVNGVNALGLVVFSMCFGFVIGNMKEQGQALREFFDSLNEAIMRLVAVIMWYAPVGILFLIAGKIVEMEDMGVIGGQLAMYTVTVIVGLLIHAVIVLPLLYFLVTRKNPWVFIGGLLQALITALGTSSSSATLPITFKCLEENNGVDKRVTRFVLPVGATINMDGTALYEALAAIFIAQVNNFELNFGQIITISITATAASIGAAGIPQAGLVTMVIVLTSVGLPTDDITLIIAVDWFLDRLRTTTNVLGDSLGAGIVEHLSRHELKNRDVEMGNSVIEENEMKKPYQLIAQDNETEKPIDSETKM
Experimental: as §1, §2, §3, §4, §5, §6

SLC1A5 = target: T3, SLC1A5 (Mus musculus, UniProt P51912); assay: [3H]L-Gln radiolabeled uptake competition in oocytes; assay type: cell-based
T3 construct: expressed in transfected cells; host or cells: Xenopus laevis oocytes (cRNA injection)
T3 sequence (P51912 1-553): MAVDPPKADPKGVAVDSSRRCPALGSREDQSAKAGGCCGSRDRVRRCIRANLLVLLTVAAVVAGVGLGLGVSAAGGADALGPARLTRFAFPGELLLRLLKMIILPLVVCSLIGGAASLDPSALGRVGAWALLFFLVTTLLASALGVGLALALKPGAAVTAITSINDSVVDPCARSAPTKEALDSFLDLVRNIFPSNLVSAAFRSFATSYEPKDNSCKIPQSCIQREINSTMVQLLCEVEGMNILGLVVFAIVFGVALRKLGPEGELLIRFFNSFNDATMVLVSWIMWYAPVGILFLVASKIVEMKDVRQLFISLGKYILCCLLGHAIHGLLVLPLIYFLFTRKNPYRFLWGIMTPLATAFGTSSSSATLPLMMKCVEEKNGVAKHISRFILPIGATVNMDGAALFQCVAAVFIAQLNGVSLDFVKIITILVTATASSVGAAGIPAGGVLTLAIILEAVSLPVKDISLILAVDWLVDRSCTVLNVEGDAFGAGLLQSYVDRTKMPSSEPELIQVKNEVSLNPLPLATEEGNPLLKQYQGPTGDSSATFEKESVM
Experimental: as §3
(A) SLC1A4 dose response curves for substrate activated anion currents using two-electrode voltage clamp of Xenopus lavies oocytes (−30 mV). […] (B) SLC1A5 dose response curve for substrate activated anion currents using two-electrode voltage clamp (−30 mV). […] Extracellular solutions contained 50 mM NaSCN.

SLC1A4 = tested on: SLC1A4; parameters: method as in PMID 14502423; conditions: cited from earlier work
SLC38A2 (ATA2) = target: T4, SLC38A2 (ATA2) (Homo sapiens, UniProt Q96QD8); assay: TEVC electrogenic coupled currents in oocytes; assay type: cell-based; conditions: induced currents
T4 construct: expressed in transfected cells; host or cells: Xenopus laevis oocytes (cRNA injection)
T4 sequence (Q96QD8 1-506): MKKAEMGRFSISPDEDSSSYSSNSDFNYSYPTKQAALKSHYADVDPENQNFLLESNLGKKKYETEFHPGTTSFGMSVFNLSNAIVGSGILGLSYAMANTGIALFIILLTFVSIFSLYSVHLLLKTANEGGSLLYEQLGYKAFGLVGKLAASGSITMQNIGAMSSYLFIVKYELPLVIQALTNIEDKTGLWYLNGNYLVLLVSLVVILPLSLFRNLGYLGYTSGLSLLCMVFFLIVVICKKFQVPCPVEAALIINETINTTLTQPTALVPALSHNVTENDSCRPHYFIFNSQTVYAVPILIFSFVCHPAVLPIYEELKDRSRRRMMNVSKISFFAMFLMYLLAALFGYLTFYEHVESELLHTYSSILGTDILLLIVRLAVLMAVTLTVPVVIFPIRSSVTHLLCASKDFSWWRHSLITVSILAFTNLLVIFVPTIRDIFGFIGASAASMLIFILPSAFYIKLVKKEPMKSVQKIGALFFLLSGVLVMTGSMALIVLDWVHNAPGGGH
Experimental: as §1, §2, §3
as §4, with “Electrodes (0.2–1.0 MΩ) were filled with 3M KCl and the recording chamber was grounded with an agar bridge.” left out, “conductance. […]” for “conductance.”

SMILES: O=C(O)[C@@H]1C[C@@H](O)CN1 [4-HP, trans-4-hydroxy-L-proline, reference compound]
- TEVC current response or block (SLC1A1 (EAAT3)): No TEVC current response or block was observed
- TEVC current response or block (SLC1A3 (EAAT1)): No TEVC current response or block was observed
- IC50 (SLC1A5): 108 µM
- increase in affinity for SLC1A4 over L-proline (SLC1A4): approximately 20 fold
- Km (SLC38A2 (ATA2)): 3.1 mM
